# Patent US5082838A, “Sulfur-containing fused pyrimidine derivatives, their production and use” (Takeda Chemical Industries, Ltd., priority 1989, dated 1992)
# Assays:
# NGF = experiment: Promoting effects on synthesis and secretion of NGF in glia cells (C6 glioma), enzyme immuno assay; format: cell-based; conditions: 24 hours, read-out: Promoting Activity (%) of NGF synthesis and secretion (relative to control = 100); for activity at 30 µM: 3 × 10^-5 M; for activity at 3 µM: 3 × 10^-6 M
# Description: Promoting Effects of the Compounds on Synthesis and Secretion of NGF in Glia Cells
# A 48 well-plate was seeded with glia strains cells (C6 glioma) at a rate of 2.5×10^4 cells/well, which was cultivated in Dulbecco's modified eagle's medium (DMEM) containing 10% fetal calf serum. When the cells became confluent (2 to 3 days), each of the following compounds of the present invention was added thereto, and it was cultivated in serum free-DMEM for 24 hours. NGF secreted in the culture supernatant was assayed by enzyme immuno assay. An amount of NGF is shown in a relative value to 100, the value of control (without addition of the compound). The compounds were added in a solution of DMSO, at an amount of 1/100 (V/V) of a medium (V/V). In a control, DMSO alone was added.
# Interleukin 1 Production = experiment: Inhibitory effects on interleukin 1 production stimulated by lipopolysaccharide in rat intraperitoneal macrophage (LAF assay); format: cell-based, Male Sprague-Dawley rats; conditions: LPS 50 ug/ml; for inhibition at 10 µM: 10^-5 Molar; for inhibition at 1 µM: 10^-6 Molar
# Description: Inhibitory Effects on Interleukin 1 Production Simulated by Lipopolysaccharide in the Rat Intraperitoneal Macrophage
# Male Sprague-Dawley rats (8 weeks old, body weight: 300 g, Clea Japan) were killed by exsanguination under etherization. 20 ml of a culture solution (RPMI-1640) was intraperitoneally administered to each rat, and the abdominal part thereof was massaged, followed by abdominal section to recover the culture solution. After centrifugation of the solution, the cell pellet obtained was resuspended in 4 ml of the culture solution, superposed on 5 ml of Ficoll-Paque solution (lymphocyte separation medium, Wako Junyaku, Japan), and centrifuged at 450 g at room temperature for 15 minutes. The cells located in the boundary between the Ficoll-Paque solution and the culture solution were collected and washed 3 times with the culture solution. The resulting cells were suspended in the culture solution again, which was used as a macrophage-suspended solution (3×10^5 cells/ml).
# Interleukin 1 was produced in the following manner. Macrophage (3×10^5 cells) in a 96-well microtiter plate was preincubated in a CO 2 incubator for 1 hour with each of the compounds shown in Table 5. Then, 50 ug/ml of lipopolysaccharide (Escherichia coli 0111 B4, Difco) was added thereto. After cultivation was further continued for 20 hours, the activity of interleukin 1 in the culture supernatant was measured by an LAF (lymphocyte activating factor) assay. Experiments were carried out in a triplicate manner.
# The LAF assay was conducted as the following. Thymocytes (1-1.5×10^6 cells) of C3H/HeJ mice were added to phytohemagglutinin (PHA) P (diluted 1/2000; Difico) and the macrophage culture solution diluted 1/10 or 1/30, and cultivated in a CO2 incubator. After 48 hours, ^3 H-thymidine of 0.5 uCi was added thereto and cultivation was further continued for 24 hours. Then, the amount of ^3 H-thymidine entrapped in the thymocytes was measured. The radioactivity entrapped in the thymocytes was taken as the amount of interleukin-1.
# We conducted this process partly modifying the method of R. C. Newton et al. [J. Leukocyte, Biology 39, 299-3111 (1986)].
# [1] = system: Feverescence of Rat Due to Lipopolvsaccharide (LPS); experiment: Antipyretic activity in LPS-induced febrile rats; format: in vivo, Male JcL;SD rats; conditions: p.o.
# Description: Activity of Depressing Feverescence of Rat Due to Lipopolvsaccharide (LPS)
# Male JcL;SD rats 7 weeks old (body weight: about 250 g, Clea Japan) were used. Each group had 6 rats. The rats were reared in individual cages from the day before, and then the basal body temperature was measured in the rectums using a digital thermometer (Model D221-6, Takara Kogyo) 3 times at intervals of 1 hour. After the third measurement of the body temperature, the compounds shown in Table 6 were orally administered in a volume of 1 ml per 100 g of body weight. LPS (Escherichia coli 0111 B4, Difco) was administered from their tail veins in an amount of 0.2 ml per 100 g of body weight 1 hour after the administration of the compounds.
# The body temperature was measured from 3 to 5 hours after that at intervals of 1 hour. The antipyretic activity of the compounds was evaluated by the difference in body temperature between a control group and a compound-administered group. Statistical analysis was carried out by the Dunnett's test.
# endothelin constriction = experiment: Inhibitory effects on endothelin induced contraction in porcine coronary arteries (LAD rings); format: cell-based; conditions: Sus scrofa, endothelin 3×10^-9 M, read-out: Inhibition (%) of maximum contraction by endothelin; for inhibition at 10 µM: 10^-5 M; for inhibition at 1 µM: 10^-6 M
# Description: Inhibitory Effects of the Compounds on […] Induced Contraction in Porcine Coronary Arteries
# Ring preparation of porcine left arterior descending coronary arteries (LAD) were suspended in 20 ml baths containing Krebs-Henseleit solutions at 37° C. gassed with 97% O2 -3% CO2. Endothelin (3×10^-9 M) was added to the baths, and after the constriction reached the steady state, the compounds at concentrations of […] and 10^-5 M (Examples 45, 48 and 127) were added to the bath. Then, the relaxation activity was examined. The relaxation activity of the compounds was expressed as % inhibition from the maximum contraction by endothelin.
# [2] = system: Endothelin Induced Pressor and Depressor Responses; experiment: Inhibitory effects on endothelin induced pressor and depressor responses in conscious beagle dogs; format: in vivo
# Source text: Inhibitory Effects on Endothelin Induced Pressor and Depressor Responses in Conscious Beagle Dogs
# Using 10 male beagles (12-14 kg, 8-10 months old), a polyethylene cannula (PEG-100) was inserted into each of the left femoral artery and vein of each beagle after pentobarbital anesthesia. The experiment was started from 3 to 7 days after the operation. The cannula was connected to a pressure transducer to measure the systemic blood pressure. The endothelin antagonistic activity of the compound obtained in Example 65 was examined, taking the depressor and pressor responses due to the intravenous administration of endothelin as its indication. […]
# [3] = system: Ischemic and Reperfused Rat Heart; experiment: Depressing effect against evolution of infarct size in ischemic and reperfused rat heart; format: in vivo, Male Wistar rats; conditions: 100 mg/kg p.o. 2 hours before occlusion and 5 hours after reperfusion; n = 5; control 36.7 ± 1.4 (12); P < 0.01
# Description: Depressing Effect Against Evolution of Infarct Size in Ischemic and Reperfused Rat Heart
# Male Wistar rats were medianly dissected under pentobarbital anesthesia, and left anterior descending coronary artery was occluded at its origin for 1 hour, followed by resumption of Blood flowing. The chest was closed 30 to 60 minutes after the reperfusion, and the rates were kept under conscious state. After 24 hours, the rats were anesthetized again and the hearts were excised. The left ventricle of each heart was divided into six parts, and these divided parts were stained with 1% triphenyltetrazolium chloride solution at 37° C. for 15 minutes. Then, infarcted portions were weighed.
# The compound obtained in Example 127 was orally administered in a dose of 100 mg/kg as a gum arabic suspension 2 hours before the occlusion and 5 hours after the reperfusion.
# [4] = 1 mg/kg, i.v., 5 min after administration, n = 4
# [5] = 1 mg/kg, i.v., 1 hr after administration, n = 4
# [6] = 1 mg/kg, i.v., 2 hr after administration, n = 4
# [7] = 1 mg/kg, i.v., 4 hr after administration, n = 4
# [8] = 1 mg/kg, i.v., 6 hr after administration, n = 4
# [9] = 10 mg/kg, p.o., 1 hr after administration, n = 3
# [10] = 10 mg/kg, p.o., 2 hr after administration, n = 3
# [11] = 10 mg/kg, p.o., 4 hr after administration, n = 3
# [12] = 10 mg/kg, p.o., 8 hr after administration, n = 3
molecule,measurement,setting,value
"O=c1c(-c2ccccc2)c2n(c(=O)n1Cc1ccccc1)CCCS2 [Example 36, 7-benzyl-9-phenyl-3,4-dihydro-2H,6H-pyrimido[6,1-b][1,3]thiazine-6,8(7H)-dione]",activity at 30 µM,NGF,102 ± 2%
same,activity at 3 µM,NGF,240 ± 16%
CCn1c(=O)c(-c2ccccc2)c2n(c1=O)CCCS2(=O)=O [Example 65],inhibition at 10 µM,Interleukin 1 Production,100%
same,inhibition at 1 µM,Interleukin 1 Production,40%
same,Antipyretic Activity (difference in body temperature vs. control group),[1]; 100 mg/kg,-0.95 °C
"CCCn1c(=O)c(-c2ccccc2)c2n(c1=O)CCCS2 [Example 1, 9-Phenyl-7-propyl-3,4-dihydro-2H,6H-pyrimido[6,1-b][1,3] thiazine-6,8(7H)-dione]",activity at 30 µM,NGF,117 ± 34%
same,activity at 3 µM,NGF,168 ± 6%
CCn1c(=O)c(-c2ccccc2)c2n(c1=O)CCCS2 [Example 17],inhibition at 10 µM,Interleukin 1 Production,93%
CCCCCn1c(=O)c(-c2ccccc2)c2n(c1=O)CCC[S+]2[O-] (stereo not shown) [Example 50],inhibition at 10 µM,Interleukin 1 Production,98%
same,inhibition at 1 µM,Interleukin 1 Production,58%
"O=c1c(-c2ccccc2)c2n(c(=O)n1Cc1ccccc1)CC=CS2 [Example 129, 7-Benzyl-9-phenyl-4H,6H-pyrimido[6,1-b][1,3]thiazine-6,8(7H)-dione]",activity at 30 µM,NGF,117 ± 6%
same,activity at 3 µM,NGF,197 ± 9%
"CCCn1c(=O)c(-c2ccccc2)c2n(c1=O)CCCS2(=O)=O [Example 58, 1,1-Dioxo-9-phenyl-7-propyl-3,4-dihydro-2H,6H-pyrimido [6,1-b][1,3]thiazine-6,8(7H)-dione]",activity at 30 µM,NGF,140 ± 2%
same,activity at 3 µM,NGF,164 ± 25%
CCCCn1c(=O)c(-c2ccccc2)c2n(c1=O)CCC[S+]2[O-] (stereo not shown) [Example 45],inhibition at 10 µM,endothelin constriction,100%
same,inhibition at 1 µM,endothelin constriction,6.2%
same,inhibition at 10 µM,Interleukin 1 Production,75%
same,inhibition at 1 µM,Interleukin 1 Production,30%
CCn1c(=O)c(-c2ccccc2)c2n(c1=O)CCC[S+]2[O-] (stereo not shown) [Example 43],inhibition at 10 µM,Interleukin 1 Production,52%
same,Antipyretic Activity (difference in body temperature vs. control group),[1]; 100 mg/kg,-0.70 °C
O=c1c(-c2ccccc2)c2n(c(=O)n1-c1ccccc1)CCS2(=O)=O [Example 63],inhibition at 10 µM,Interleukin 1 Production,98%
"CCCn1c(=O)c(-c2ccccc2)c2n(c1=O)CC=CS2 [Example 127, 9-Phenyl-7-propyl-4H,6H-pyrimido[6,1-b][1,3]thiazine6,8(7H)-dione]",inhibition at 10 µM,endothelin constriction,90%
same,inhibition at 1 µM,endothelin constriction,82.3%
same,% inhibition of Depressor Response,[2]; [4],86 ± 9%
same,% inhibition of Pressor Response,[2]; [4],100%
same,% inhibition of Depressor Response,[2]; [5],74 ± 11%
same,% inhibition of Pressor Response,[2]; [5],55 ± 7%
same,% inhibition of Depressor Response,[2]; [6],57 ± 10%
same,% inhibition of Pressor Response,[2]; [6],55 ± 7%
same,% inhibition of Depressor Response,[2]; [7],31 ± 13%
same,% inhibition of Pressor Response,[2]; [7],38 ± 15%
same,% inhibition of Depressor Response,[2]; [8],30 ± 8%
same,% inhibition of Pressor Response,[2]; [8],32 ± 10%
same,% inhibition of Depressor Response,[2]; [9],34 ± 9%
same,% inhibition of Pressor Response,[2]; [9],37 ± 10%
same,% inhibition of Depressor Response,[2]; [10],81 ± 10%
same,% inhibition of Pressor Response,[2]; [10],85 ± 10%
same,% inhibition of Depressor Response,[2]; [11],67 ± 12%
same,% inhibition of Pressor Response,[2]; [11],76 ± 12%
same,% inhibition of Depressor Response,[2]; [12],50 ± 0%
same,% inhibition of Pressor Response,[2]; [12],43 ± 4%
same,ratio of the weight of the infarcted region to the weight of the left ventricles,[3],26.8 ± 3.1%
CCCCn1c(=O)c(-c2ccccc2)c2n(c1=O)CCCS2 [Example 23],Antipyretic Activity (difference in body temperature vs. control group),[1]; 100 mg/kg,-0.72 °C
CCCn1c(=O)c(-c2ccccc2)c2n(c1=O)CCS2(=O)=O [Example 61],activity at 30 µM,NGF,109 ± 12%
same,activity at 3 µM,NGF,177 ± 8%
CCCCn1c(=O)c(-c2ccccc2)c2n(c1=O)CCS2(=O)=O [Example 62],inhibition at 10 µM,Interleukin 1 Production,96%
Cn1c(=O)c(-c2ccccc2)c2n(c1=O)CCS2(=O)=O [Example 59],inhibition at 10 µM,Interleukin 1 Production,89%
CCCC/C=C/c1c2n(c(=O)n(CCC)c1=O)CCS2 [Example 106],Antipyretic Activity (difference in body temperature vs. control group),[1]; 100 mg/kg,-0.53 °C
O=c1c(-c2ccccc2)c2n(c(=O)n1-c1ccccc1)CCCS2(=O)=O [Example 67],inhibition at 10 µM,Interleukin 1 Production,98%
same,inhibition at 1 µM,Interleukin 1 Production,10%
"9-Formyl-7-propyl-3,4-dihydro-2H,6H-pyrimido[6,1-b][1,3]thiazine-6,8(7H)-dione [Example 101]",Antipyretic Activity (difference in body temperature vs. control group),[1]; 100 mg/kg,-0.87 °C
Cn1c(=O)c(-c2ccccc2)c2n(c1=O)CCCS2(=O)=O [Example 64],inhibition at 10 µM,Interleukin 1 Production,100%
same,inhibition at 1 µM,Interleukin 1 Production,60%
same,Antipyretic Activity (difference in body temperature vs. control group),[1]; 25 mg/kg,-0.68 °C
same,Antipyretic Activity (difference in body temperature vs. control group),[1]; 50 mg/kg,-0.82 °C
same,Antipyretic Activity (difference in body temperature vs. control group),[1]; 100 mg/kg,-1.13 °C
CCCn1c(=O)c(-c2ccccc2)c2n(c1=O)CC[S+]2[O-] (stereo not shown) [Example 48],inhibition at 10 µM,endothelin constriction,86.6%
same,inhibition at 1 µM,endothelin constriction,24.6%
